Measured values: PubChem BioAssay AID1259407 (Chemical Carcinogenesis Research Information System (CCRIS), 2018)
The source made the active and inactive calls. How the calls were made is not given here.

System: CCRIS mutagenicity, Ames/micronucleus/aberration tests
Assay: CCRIS mutagenicity studies

Measured: mutagenic call

O.O.O=N[O-].O=N[O-].O=N[O-].O=N[O-].[K+].[K+].[Pt]
inactive: Test System: AMES SALMONELLA TYPHIMURIUM, Strain/Indicator: TA98, Metabolic Activation: NONE, Method: PREINCUBATION inactive; negative | Test System: AMES SALMONELLA TYPHIMURIUM, Strain/Indicator: TA98, Metabolic Activation: RAT, LIVER, S-9, AROCLOR 1254, Method: PREINCUBATION inactive; negative | Test System: AMES SALMONELLA TYPHIMURIUM, Strain/Indicator: TA100, Metabolic Activation: NONE, Method: PREINCUBATION inactive; negative | Test System: AMES SALMONELLA TYPHIMURIUM, Strain/Indicator: TA100, Metabolic Activation: RAT, LIVER, S-9, AROCLOR 1254, Method: PREINCUBATION inactive; negative

Fc1cc(F)c2ncccc2c1
active: Test System: AMES SALMONELLA TYPHIMURIUM, Strain/Indicator: TA100, Metabolic Activation: RAT LIVER S-9, PHENOBARBITAL AND 5,6-BENZOFLAVONE, Method: PREINCUBATION active; positive

C=CCNc1ccccc1.C=CCNc1ccccc1.C=CCNc1ccccc1.[Cl-].[Cl-].[Rh].[Rh]
inactive: Test System: AMES SALMONELLA TYPHIMURIUM, Strain/Indicator: TA92, Metabolic Activation: NONE, Method: STANDARD PLATE inactive; negative

Cc1cnc2c(cc(C)c3c2nc(N)n3C)n1
active: Test System: AMES SALMONELLA TYPHIMURIUM, Strain/Indicator: TA98, Metabolic Activation: RAT, LIVER, S-9, AROCLOR 1254, Method: STANDARD PLATE active; positive

CN[C@H]1[C@@H](O[C@@H]2C3CC#CC4O[C@@]4(C4COC(=O)O4)C#CC3=C[C@H]2OC(=O)c2c(O)ccc3c(C)cc(OC)cc23)O[C@H](C)[C@H](O)[C@@H]1O (stereo partly drawn)
inactive: Test System: AMES SALMONELLA TYPHIMURIUM, Strain/Indicator: TA98, Metabolic Activation: NONE, Method: STANDARD PLATE inactive; negative | Test System: AMES SALMONELLA TYPHIMURIUM, Strain/Indicator: TA100, Metabolic Activation: NONE, Method: STANDARD PLATE inactive; negative
active: Test System: CHINESE HAMSTER OVARY, Strain/Indicator: CHO-D422 (APRT)/8-AZAADENINE, Metabolic Activation: NONE active; positive | Test System: CHINESE HAMSTER OVARY, Strain/Indicator: CHO-K1/6-THIOGUANINE, Metabolic Activation: NONE active; positive | Test System: E. COLI, Strain/Indicator: WP2 (HCR), Metabolic Activation: NONE, Method: STANDARD PLATE active; positive | Test System: E. COLI, Strain/Indicator: WP2, Metabolic Activation: NONE, Method: PREINCUBATION active; positive | Test System: E. COLI, Strain/Indicator: WP2, Metabolic Activation: NONE, Method: SPOT active; positive | Test System: E. COLI, Strain/Indicator: WP2 UVRA, Metabolic Activation: NONE, Method: PREINCUBATION active; positive | Test System: E. COLI, Strain/Indicator: WP2 UVRA, Metabolic Activation: NONE, Method: SPOT active; positive | Test System: UDS HUMAN CELLS, Strain/Indicator: THY INCORP (NON-S-PHASE), Metabolic Activation: NONE, Method: AUTORADIOGRAPHY active; positive | Test System: UDS HUMAN CELLS, Strain/Indicator: THY INCORP (NON-S-PHASE), Metabolic Activation: NONE, Method: LIQUID SCINTILLATION COUNTING active; positive

CC(F)F
inactive: Test System: AMES SALMONELLA TYPHIMURIUM, Strain/Indicator: TA98, Metabolic Activation: NONE, Method: GAS EXPOSURE inactive; negative | Test System: AMES SALMONELLA TYPHIMURIUM, Strain/Indicator: TA98, Metabolic Activation: RAT LIVER S-9, PHENOBARBITAL AND BETA-NAPHTHOFLAVONE, Method: GAS EXPOSURE inactive; negative | Test System: AMES SALMONELLA TYPHIMURIUM, Strain/Indicator: TA100, Metabolic Activation: NONE, Method: GAS EXPOSURE inactive; negative | Test System: AMES SALMONELLA TYPHIMURIUM, Strain/Indicator: TA100, Metabolic Activation: RAT LIVER S-9, PHENOBARBITAL AND BETA-NAPHTHOFLAVONE, Method: GAS EXPOSURE inactive; negative | Test System: AMES SALMONELLA TYPHIMURIUM, Strain/Indicator: TA1535, Metabolic Activation: NONE, Method: GAS EXPOSURE inactive; negative | Test System: AMES SALMONELLA TYPHIMURIUM, Strain/Indicator: TA1535, Metabolic Activation: RAT LIVER S-9, PHENOBARBITAL AND BETA-NAPHTHOFLAVONE, Method: GAS EXPOSURE inactive; negative | Test System: AMES SALMONELLA TYPHIMURIUM, Strain/Indicator: TA1537, Metabolic Activation: NONE, Method: GAS EXPOSURE inactive; negative | Test System: AMES SALMONELLA TYPHIMURIUM, Strain/Indicator: TA1537, Metabolic Activation: RAT LIVER S-9, PHENOBARBITAL AND BETA-NAPHTHOFLAVONE, Method: GAS EXPOSURE inactive; negative | Test System: E.COLI, Strain/Indicator: WP2UVRA, Metabolic Activation: NONE, Method: GAS EXPOSURE inactive; negative | Test System: E.COLI, Strain/Indicator: WP2UVRA, Metabolic Activation: RAT LIVER S-9, PHENOBARBITAL AND BETA-NAPHTHOFLAVONE, Method: GAS EXPOSURE inactive; negative
